# Source: ChEMBL document CHEMBL1158545, “3'-(1,2,3-Triazol-1-yl)-3'-deoxythymidine analogs as substrates for human and Ureaplasma parvum thymidine kinase for structure-activity investigations” (Bioorg Med Chem, 2010)
# T1: Thymidine kinase, cytosolic (Homo sapiens) (UniProt P04183)
# T1 sequence (whole entry): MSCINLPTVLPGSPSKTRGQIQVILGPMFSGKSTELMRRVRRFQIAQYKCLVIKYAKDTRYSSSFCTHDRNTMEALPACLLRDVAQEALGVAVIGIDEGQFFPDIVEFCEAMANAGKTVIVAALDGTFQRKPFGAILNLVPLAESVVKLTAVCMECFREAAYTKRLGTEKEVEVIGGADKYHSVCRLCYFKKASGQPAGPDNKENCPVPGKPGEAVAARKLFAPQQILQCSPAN
# T2: Thymidine kinase (Ureaplasma parvum serovar 3 (strain ATCC 700970)) (UniProt Q9PPP5)
# T2 sequence (whole entry): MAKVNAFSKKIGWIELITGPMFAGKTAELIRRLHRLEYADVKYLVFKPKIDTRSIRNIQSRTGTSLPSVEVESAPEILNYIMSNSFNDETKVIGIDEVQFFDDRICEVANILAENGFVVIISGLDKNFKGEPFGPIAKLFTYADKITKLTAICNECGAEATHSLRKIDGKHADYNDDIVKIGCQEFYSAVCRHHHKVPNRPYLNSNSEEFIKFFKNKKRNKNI
# T3: Thymidine kinase, cytosolic (Homo sapiens, UniProt P04183)
# T3 sequence (P04183 whole entry): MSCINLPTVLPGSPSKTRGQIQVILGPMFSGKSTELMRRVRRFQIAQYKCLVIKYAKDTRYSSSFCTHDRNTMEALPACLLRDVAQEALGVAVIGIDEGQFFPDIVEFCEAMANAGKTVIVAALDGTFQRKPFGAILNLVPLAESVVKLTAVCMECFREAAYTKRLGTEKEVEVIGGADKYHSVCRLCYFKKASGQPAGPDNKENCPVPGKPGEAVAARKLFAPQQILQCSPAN
# T4: Thymidine kinase (Ureaplasma parvum serovar 3 (strain ATCC 700970), UniProt Q9PPP5)
# T4 sequence (Q9PPP5 whole entry): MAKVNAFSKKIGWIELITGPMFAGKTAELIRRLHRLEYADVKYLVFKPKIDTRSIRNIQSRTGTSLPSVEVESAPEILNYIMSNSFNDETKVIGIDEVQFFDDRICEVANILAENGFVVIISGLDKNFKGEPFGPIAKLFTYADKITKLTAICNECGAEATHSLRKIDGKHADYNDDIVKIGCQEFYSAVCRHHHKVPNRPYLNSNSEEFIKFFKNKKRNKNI
# Key:
# [1] = molecular target: T1, Thymidine kinase, cytosolic (Homo sapiens); assay: Activity of human TK1 relative to ATP; parameters: concentration or dose not given beside the values
# [2] = molecular target: T2, Thymidine kinase (Ureaplasma parvum serovar 3 (strain ATCC 700970)); assay: Activity of Ureaplasma parvum thymidine kinase relative to dThd
# [3] = molecular target: T2, Thymidine kinase (Ureaplasma parvum serovar 3 (strain ATCC 700970)); assay: Ratio of Vmax to Km for Ureaplasma parvum thymidine kinase relative to dThd
# [4] = molecular target: T1, Thymidine kinase, cytosolic (Homo sapiens); assay: Ratio of Vmax to Km for human TK1 relative to […]
# [5] = molecular target: T3, Thymidine kinase, cytosolic; assay: Inhibition of human TK1 by liquid scintillation counting
# Thymidine kinase = molecular target: T4, Thymidine kinase; assay: Inhibition of Ureaplasma parvum thymidine kinase by liquid scintillation counting
# [6] = substrate: Cc1cn([C@H]2C[C@H](n3cc(Cc4ccccc4)nn3)[C@@H](CO)O2)c(=O)[nH]c1=O; settings: Homo sapiens
# [7] = substrate: Cc1cn([C@H]2C[C@H](n3cc(C(C)(C)C)nn3)[C@@H](CO)O2)c(=O)[nH]c1=O; settings: Homo sapiens
# [8] = substrate: Cc1cn([C@H]2C[C@H](N=[N+]=[N-])[C@@H](CO)O2)c(=O)[nH]c1=O; settings: Homo sapiens
# [9] = substrate: CCCCCc1cn([C@H]2C[C@H](n3cc(C)c(=O)[nH]c3=O)O[C@@H]2CO)nn1; settings: Homo sapiens
# [10] = substrate: CC(=O)OCc1cn([C@H]2C[C@H](n3cc(C)c(=O)[nH]c3=O)O[C@@H]2CO)nn1; settings: Homo sapiens
# [11] = substrate: Cc1cn([C@H]2C[C@H](n3cc(-c4ccccn4)nn3)[C@@H](CO)O2)c(=O)[nH]c1=O; settings: Homo sapiens
# [12] = substrate: CCCc1cn([C@H]2C[C@H](n3cc(C)c(=O)[nH]c3=O)O[C@@H]2CO)nn1; settings: Homo sapiens
# [13] = substrate: Cc1cn([C@H]2C[C@H](n3cc(-c4ccccc4)nn3)[C@@H](CO)O2)c(=O)[nH]c1=O; settings: Homo sapiens
# [14] = substrate: Cc1cn([C@H]2C[C@H](n3cc(CCc4ccccc4)nn3)[C@@H](CO)O2)c(=O)[nH]c1=O; settings: Homo sapiens
# [15] = substrate: Cc1cn([C@H]2C[C@H](n3cc(Cc4ccccc4)nn3)[C@@H](CO)O2)c(=O)[nH]c1=O; settings: Ureaplasma parvum
# [16] = substrate: Cc1cn([C@H]2C[C@H](n3cc(C(C)(C)C)nn3)[C@@H](CO)O2)c(=O)[nH]c1=O; settings: Ureaplasma parvum
# [17] = substrate: Cc1cn([C@H]2C[C@H](N=[N+]=[N-])[C@@H](CO)O2)c(=O)[nH]c1=O; settings: Ureaplasma parvum
# [18] = substrate: CCCCCc1cn([C@H]2C[C@H](n3cc(C)c(=O)[nH]c3=O)O[C@@H]2CO)nn1; settings: Ureaplasma parvum
# [19] = substrate: CC(=O)OCc1cn([C@H]2C[C@H](n3cc(C)c(=O)[nH]c3=O)O[C@@H]2CO)nn1; settings: Ureaplasma parvum
# [20] = substrate: Cc1cn([C@H]2C[C@H](n3cc(-c4ccccn4)nn3)[C@@H](CO)O2)c(=O)[nH]c1=O; settings: Ureaplasma parvum
# [21] = substrate: CCCc1cn([C@H]2C[C@H](n3cc(C)c(=O)[nH]c3=O)O[C@@H]2CO)nn1; settings: Ureaplasma parvum
# [22] = substrate: Cc1cn([C@H]2C[C@H](n3cc(-c4ccccc4)nn3)[C@@H](CO)O2)c(=O)[nH]c1=O; settings: Ureaplasma parvum
# [23] = substrate: Cc1cn([C@H]2C[C@H](n3cc(CCc4ccccc4)nn3)[C@@H](CO)O2)c(=O)[nH]c1=O; settings: Ureaplasma parvum
Molecule,Activity [1],Activity [2],Activity [3],Activity [4],IC50 [5],also measured
COCc1cn([C@H]2C[C@H](n3cc(C)c(=O)[nH]c3=O)O[C@@H]2CO)nn1,1.3%,1.6%,,,,
Cc1cn([C@H]2C[C@H](n3cc(-c4ccccn4)nn3)[C@@H](CO)O2)c(=O)[nH]c1=O,3.1%,7.1%,1.1%,0.5%,53 µM,
Cc1cn([C@H]2C[C@H](N=[N+]=[N-])[C@@H](CO)O2)c(=O)[nH]c1=O,47.3%,27.8%,43%,50%,,
Cc1cn([C@H]2C[C@H](n3cc(-c4ccc(F)cc4)nn3)[C@@H](CO)O2)c(=O)[nH]c1=O,2.6%,13.7%,,1.1%,44 µM,IC50 (Thymidine kinase): 71 µM
CCCCCc1cn([C@H]2C[C@H](n3cc(C)c(=O)[nH]c3=O)O[C@@H]2CO)nn1,1.9%,7.2%,1.6%,0.3%,,
Cc1cn([C@H]2C[C@H](n3cc(CCO)nn3)[C@@H](CO)O2)c(=O)[nH]c1=O,2.2%,4.1%,,,,
Cc1cn([C@H]2C[C@H](n3cc(CCc4ccccc4)nn3)[C@@H](CO)O2)c(=O)[nH]c1=O,2.4%,12.3%,0.8%,0.08%,60 µM,
CCCc1cn([C@H]2C[C@H](n3cc(C)c(=O)[nH]c3=O)O[C@@H]2CO)nn1,2.7%,6.5%,0.5%,0.1%,,
CC(=O)OCc1cn([C@H]2C[C@H](n3cc(C)c(=O)[nH]c3=O)O[C@@H]2CO)nn1,2.4%,3.9%,0.6%,0.1%,,
Cc1cn([C@H]2C[C@H](n3cc(Cc4ccccc4)nn3)[C@@H](CO)O2)c(=O)[nH]c1=O,4.8%,11.6%,0.8%,0.1%,78 µM,IC50 (Thymidine kinase): 73 µM
Cc1cn([C@H]2C[C@H](n3cc(C(C)(C)C)nn3)[C@@H](CO)O2)c(=O)[nH]c1=O,2.2%,4.7%,0.15%,0.07%,,
Cc1cn([C@H]2C[C@H](n3cc(-c4ccccc4)nn3)[C@@H](CO)O2)c(=O)[nH]c1=O,2.1%,5.5%,0.7%,0.2%,99 µM,
"Thymidine kinase, cytosolic (Homo sapiens), P04183 (protein) MSCINLPTVLPGSPSKTRGQIQVILGPMFSGKSTELMRRVRRFQIAQYKCLVIKYAKDTRYSSSFCTHDRNTMEALPACLLRDVAQEALGVAVIGIDEGQFFPDIVEFCEAMANAGKTVIVAALDGTFQRKPFGAILNLVPLAESVVKLTAVCMECFREAAYTKRLGTEKEVEVIGGADKYHSVCRLCYFKKASGQPAGPDNKENCPVPGKPGEAVAARKLFAPQQILQCSPAN",,,,,,Km [6]: 174 µM; Km [7]: 243 µM; Km [8]: 3.5 µM; Km [9]: 75 µM; Km [10]: 114 µM; Km [11]: 33 µM; Km [12]: 138 µM; Km [13]: 57 µM; Km [14]: 204 µM
"Thymidine kinase (Ureaplasma parvum serovar 3 (strain ATCC 700970)), Q9PPP5 (protein) MAKVNAFSKKIGWIELITGPMFAGKTAELIRRLHRLEYADVKYLVFKPKIDTRSIRNIQSRTGTSLPSVEVESAPEILNYIMSNSFNDETKVIGIDEVQFFDDRICEVANILAENGFVVIISGLDKNFKGEPFGPIAKLFTYADKITKLTAICNECGAEATHSLRKIDGKHADYNDDIVKIGCQEFYSAVCRHHHKVPNRPYLNSNSEEFIKFFKNKKRNKNI",,,,,,Km [15]: 85 µM; Km [16]: 259 µM; Km [17]: 2.7 µM; Km [18]: 32 µM; Km [19]: 78 µM; Km [20]: 30 µM; Km [21]: 122 µM; Km [22]: 40 µM; Km [23]: 104 µM
